# Measurements: patent publication US8614327B2 (Vertex Pharmaceuticals Incorporated, priority 2004, dated 2013)
# Biological target: T1, ΔF508-CFTR (Homo sapiens, UniProt P13569, DEL508-508)
# T1 construct: expressed in transfected cells
# Assay: Membrane potential optical (FRET/VIPR) assay, identification of potentiator compounds
# Assay type: cell-based
# Conditions: Table 3, assay not given; for % Activity: relative efficacy
# Method in brief: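 Double-addition potentiator screen: compound delivered in gluconate-substituted Cl^--free medium, membrane potential followed via CC2-DMPE/DiSBAC2(3) FRET on VIPR. Cells were ΔF508-CFTR-expressing NIH3T3 mouse fibroblasts, held 2 h at 37° C. then 24 h at 27° C. before assay.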
# T1 sequence (P13569 with tags, fused parts or gaps DEL508-508): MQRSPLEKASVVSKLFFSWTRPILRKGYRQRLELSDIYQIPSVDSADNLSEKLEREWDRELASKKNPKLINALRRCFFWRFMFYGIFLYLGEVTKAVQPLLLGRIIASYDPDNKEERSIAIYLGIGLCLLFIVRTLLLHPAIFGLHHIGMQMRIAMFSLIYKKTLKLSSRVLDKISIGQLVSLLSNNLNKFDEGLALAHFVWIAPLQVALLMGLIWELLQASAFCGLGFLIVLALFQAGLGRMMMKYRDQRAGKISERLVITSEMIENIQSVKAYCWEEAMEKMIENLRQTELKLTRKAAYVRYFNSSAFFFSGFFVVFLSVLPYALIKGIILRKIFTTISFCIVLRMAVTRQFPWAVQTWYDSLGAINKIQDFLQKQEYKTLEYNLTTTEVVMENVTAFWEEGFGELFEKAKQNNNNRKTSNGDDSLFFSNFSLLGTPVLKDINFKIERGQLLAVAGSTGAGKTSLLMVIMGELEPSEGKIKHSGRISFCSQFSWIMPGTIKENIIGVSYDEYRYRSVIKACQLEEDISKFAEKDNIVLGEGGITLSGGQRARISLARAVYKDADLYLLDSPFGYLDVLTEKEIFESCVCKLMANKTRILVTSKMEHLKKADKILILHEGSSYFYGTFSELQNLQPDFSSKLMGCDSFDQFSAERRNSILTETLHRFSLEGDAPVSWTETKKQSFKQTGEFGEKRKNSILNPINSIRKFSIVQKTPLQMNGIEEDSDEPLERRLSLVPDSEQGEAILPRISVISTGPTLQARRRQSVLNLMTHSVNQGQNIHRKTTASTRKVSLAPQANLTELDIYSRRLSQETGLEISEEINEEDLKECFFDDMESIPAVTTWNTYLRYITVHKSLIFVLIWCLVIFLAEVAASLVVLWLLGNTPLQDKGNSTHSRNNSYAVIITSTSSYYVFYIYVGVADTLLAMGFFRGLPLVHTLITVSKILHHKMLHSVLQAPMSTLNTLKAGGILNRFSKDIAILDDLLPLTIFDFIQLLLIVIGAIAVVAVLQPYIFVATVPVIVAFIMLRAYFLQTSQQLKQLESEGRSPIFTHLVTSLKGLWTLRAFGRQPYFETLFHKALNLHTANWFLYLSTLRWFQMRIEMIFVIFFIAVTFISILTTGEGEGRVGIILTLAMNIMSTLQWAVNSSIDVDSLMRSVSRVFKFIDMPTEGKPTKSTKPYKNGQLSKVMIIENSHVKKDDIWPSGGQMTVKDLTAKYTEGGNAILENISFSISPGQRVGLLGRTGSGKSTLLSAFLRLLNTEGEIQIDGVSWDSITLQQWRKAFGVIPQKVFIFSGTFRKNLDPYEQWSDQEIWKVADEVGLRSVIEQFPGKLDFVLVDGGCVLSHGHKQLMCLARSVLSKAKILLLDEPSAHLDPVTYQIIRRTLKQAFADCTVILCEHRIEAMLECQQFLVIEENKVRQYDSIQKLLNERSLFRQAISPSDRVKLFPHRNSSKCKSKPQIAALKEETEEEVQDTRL
SMILES,EC50 [µM],% Activity
"O=C(Nc1c(Cl)cccc1Cl)c1c[nH]c2ccccc2c1=O [Compound 317, N-(2,6-dichlorophenyl)-4-oxo-1H-quinoline-3-carboxamide]",< 10,++ (between 25% to 100%)
"O=C(Nc1cnccn1)c1c[nH]c2ccccc2c1=O [Compound 219, 4-oxo-N-pyrazin-2-yl-1H-quinoline-3-carboxamide]",25 to 60,+ (<25%)
"CN(C)c1ccc(-c2ccccc2NC(=O)c2c[nH]c3ccccc3c2=O)cc1 [Compound 12, N-[2-(4-dimethylaminophenyl)phenyl]-4-oxo-1H-quinoline-3-carboxamide]",< 10,++ (between 25% to 100%)
"COc1ccccc1-c1ccccc1NC(=O)c1c[nH]c2ccccc2c1=O [Compound 355, N-[2-(2-methoxyphenyl)phenyl]-4-oxo-1H-quinoline-3-carboxamide]",< 10,++ (between 25% to 100%)
"N#Cc1c[nH]c2cc(NC(=O)c3c[nH]c4ccccc4c3=O)ccc12 [Compound 339, N-(3-cyano-1H-indol-6-yl)-4-oxo-1H-quinoline-3-carboxamide]",< 10,++ (between 25% to 100%)
"CCc1ccc(NC(=O)c2c[nH]c3ccccc3c2=O)cc1NC(C)=O [Compound 149, N-(3-acetylamino-4-ethyl-phenyl)-4-oxo-1H-quinoline-3-carboxamide]",10 to 25,++ (between 25% to 100%)
"CC(C)COC(=O)NCC(C)(C)c1ccc(NC(=O)c2c[nH]c3ccccc3c2=O)cc1 [Compound 251, [2-methyl-2-[4-[(4-oxo-1H-quinolin-3-yl)carbonylamino]phenyl]-propyl]aminoformic acid isobutyl ester]",< 10,++ (between 25% to 100%)
"CCc1cccc(C)c1NC(=O)c1c[nH]c2ccccc2c1=O [Compound 180, N-(2-ethyl-6-methyl-phenyl)-4-oxo-1H-quinoline-3-carboxamide]",< 10,++ (between 25% to 100%)
"O=C(Nc1ccccc1-c1ccc(F)c(Cl)c1)c1c[nH]c2ccccc2c1=O [Compound 190, N-[2-(3-chloro-4-fluoro-phenyl)phenyl]-4-oxo-1H-quinoline-3-carboxamide]",< 10,++ (between 25% to 100%)
"Nc1cc(Cl)cc(NC(=O)c2c[nH]c3ccccc3c2=O)c1 [Compound 131, N-(3-amino-5-chloro-phenyl)-4-oxo-1H-quinoline-3-carboxamide]",–,++ (between 25% to 100%)
"O=C(Nc1ccccc1-c1ccco1)c1c[nH]c2ccccc2c1=O [Compound 115, N-[2-(2-furyl)phenyl]-4-oxo-1H-quinoline-3-carboxamide]",< 10,++ (between 25% to 100%)
"O=C(Nc1ccccc1-c1cc2ccccc2[nH]1)c1c[nH]c2ccccc2c1=O [Compound 38, N-[2-(1H-indol-2-yl)phenyl]-4-oxo-1H-quinoline-3-carboxamide]",< 10,++ (between 25% to 100%)
"O=C(Nc1ccccc1N1CCN(C(=O)c2ccccc2)CC1)c1c[nH]c2ccccc2c1=O [Compound 321, N-[2-(4-benzoylpiperazin-1-yl)phenyl]-4-oxo-1H-quinoline-3-carboxamide]",< 10,++ (between 25% to 100%)
"CCOc1ccccc1-c1ccc(CN)cc1NC(=O)c1c[nH]c2ccccc2c1=O [Compound 163, 4-Oxo-1,4-dihydro-quinoline-3-carboxylic acid (4-aminomethyl-2′-ethoxy-biphenyl-2-yl)-amide]",10 to 25,++ (between 25% to 100%)
"CC1(C)CCNc2cc(NC(=O)c3c[nH]c4ccccc4c3=O)ccc21 [Compound 300, N-(4,4-Dimethyl-1,2,3,4-tetrahydroquinolin-7-yl)-4-oxo-1H-quinoline-3-carboxamide]",< 10,++ (between 25% to 100%)
"CC(C)OC(=O)c1cccc(-c2ccccc2NC(=O)c2c[nH]c3ccccc3c2=O)c1 [Compound 71, 3-[2-[(4-oxo-1H-quinolin-3-yl)carbonylamino]phenyl]benzoic acid isopropyl ester]",< 10,++ (between 25% to 100%)
"CC(C)(C)c1cc(Cl)c(NC(=O)c2c[nH]c3ccccc3c2=O)cc1O [Compound 291, N-(2-chloro-5-hydroxy-4-tert-butyl-phenyl)-4-oxo-1H-quinoline-3-carboxamide]",–,++ (between 25% to 100%)
"CCOC(=O)Nc1ccc(C(C)C)c(NC(=O)c2c[nH]c3ccccc3c2=O)c1 [Compound 269, [4-isopropyl-3-[(4-oxo-1H-quinolin-3-yl)carbonylamino]phenyl]aminoformic acid ethyl ester]",< 10,++ (between 25% to 100%)
"O=C(Nc1ccccc1CCO)c1c[nH]c2ccccc2c1=O [Compound 40, N-[2-(2-hydroxyethyl)phenyl]-4-oxo-1H-quinoline-3-carboxamide]",25 to 60,+ (<25%)
"Cc1ccnc(NC(=O)c2c[nH]c3ccccc3c2=O)c1 [Compound 84, N-(4-methyl-2-pyridyl)-4-oxo-1H-quinoline-3-carboxamide]",25 to 60,+ (<25%)

# More lines, now with the values ahead:
EC50 [µM],% Activity,SMILES
< 10,++ (between 25% to 100%),"CCOCCc1c[nH]c2cc(NC(=O)c3c[nH]c4ccccc4c3=O)ccc12 [Compound 423, N-[3-(2-ethoxyethyl)-1H-indol-6-yl]-4-oxo-1H-quinoline-3-carboxamide]"
< 10,++ (between 25% to 100%),"CC(C)(C)c1cc2cc[nH]c2cc1NC(=O)c1c[nH]c2ccc(O)cc2c1=O [Compound 679, 6-hydroxy-4-oxo-N-(5-tert-butyl-1H-indol-6-yl)-1H-quinoline-3-carboxamide]"
< 10,++ (between 25% to 100%),"O=C(Nc1ccccc1-c1ccc(C(F)(F)F)cc1)c1c[nH]c2ccccc2c1=O [Compound 366, 4-oxo-N-[2-[4-(trifluoromethyl)phenyl]phenyl]-1H-quinoline-3-carboxamide]"
< 10,++ (between 25% to 100%),"CC1(c2cc(F)c(NC(=O)c3cnc4ccccc4c3O)cc2O)CCCCCCC1 [Compound 403, N-[2-fluoro-5-hydroxy-4-(1-methylcyclooctyl)-phenyl]-4-hydroxy-quinoline-3-carboxamide]"
< 10,++ (between 25% to 100%),"Cc1ccc2[nH]cc(C(=O)Nc3ccc(N4CCCC4C)cc3C(F)(F)F)c(=O)c2c1 (stereo not shown) [Compound 503, 6-methyl-N-[4-(2-methylpyrrolidin-1-yl)-2-(trifluoromethyl)phenyl]-4-oxo-1H-quinoline-3-carboxamide]"
< 10,++ (between 25% to 100%),"O=C(Nc1cc(C(=O)O)c2cc[nH]c2c1)c1c[nH]c2ccccc2c1=O [Compound 711, 6-[(4-oxo-1H-quinolin-3-yl)carbonylamino]-1H-indole-4-carboxylic acid]"
< 10,++ (between 25% to 100%),"COc1cc(NC(=O)c2c[nH]c3ccccc3c2=O)cc2ccccc12 [Compound 717, N-(4-methoxy-2-naphthyl)-4-oxo-1H-quinoline-3-carboxamide]"
< 10,++ (between 25% to 100%),"O=C(Nc1cc(O)cc(C(F)(F)F)c1)c1c[nH]c2ccccc2c1=O [Compound 563, N-[3-hydroxy-5-(trifluoromethyl)phenyl]-4-oxo-1H-quinoline-3-carboxamide]"
< 10,++ (between 25% to 100%),"COc1ccc2[nH]cc(C(=O)Nc3cc(O)c(C4(C)CCCCC4)cc3F)c(=O)c2c1 [Compound 584, N-[2-fluoro-5-hydroxy-4-(1-methylcyclohexyl)-phenyl]-6-methoxy-4-oxo-1H-quinoline-3-carboxamide]"
< 10,++ (between 25% to 100%),"Cc1ccc2[nH]cc(C(=O)Nc3cc(O)c(C4(C)CCCCC4)cc3F)c(=O)c2c1 [Compound 624, N-[2-fluoro-5-hydroxy-4-(1-methylcyclohexyl)-phenyl]-6-methyl-4-oxo-1H-quinoline-3-carboxamide]"
< 10,++ (between 25% to 100%),"CCCc1ccc(NC(=O)c2c[nH]c3ccccc3c2=O)cc1NC(=O)OCC [Compound 382, [5-[(4-oxo-1H-quinolin-3-yl)carbonylamino]-2-propyl-phenyl]aminoformic acid ethyl ester]"
10 to 25,++ (between 25% to 100%),"CC(=O)Nc1cc(NC(=O)c2c[nH]c3ccccc3c2=O)cc(C(F)(F)F)c1 [Compound 379, N-[3-acetylamino-5-(trifluoromethyl)phenyl]-4-oxo-1H-quinoline-3-carboxamide]"
10 to 25,+ (<25%),"CCOc1cccc2c(=O)c(C(=O)Nc3cc4[nH]ccc4cc3C(C)(C)C)c[nH]c12 [Compound 641, 8-ethoxy-4-oxo-N-(5-tert-butyl-1H-indol-6-yl)-1H-quinoline-3-carboxamide]"
10 to 25,+ (<25%),"CCc1cccc2c(=O)c(C(=O)Nc3cc(O)c(C(C)(C)C)cc3F)c[nH]c12 [Compound 605, 8-ethyl-N-(2-fluoro-5-hydroxy-4-tert-butyl-phenyl)-4-oxo-1H-quinoline-3-carboxamide]"
< 10,+ (<25%),"COc1nc(NC(=O)c2c[nH]c3ccccc3c2=O)ccc1C(F)(F)F [Compound 571, N-[6-methoxy-5-(trifluoromethyl)-2-pyridyl]-4-oxo-1H-quinoline-3-carboxamide]"
< 10,++ (between 25% to 100%),"O=C(Nc1ccc2c(c1)CCCC2)c1c[nH]c2ccccc2c1=O [Compound 375, 1,4-dihydro-N-(1,2,3,4-tetrahydronaphthalen-6-yl)-4-oxoquinoline-3-carboxamide]"
